In the METLIN SMRT retention time set (Domingo-Almenara et al. 2019):

Experiment: gradient 5% acetonitrile 3 min, to 50% in 2 min, to 85% in 15 min, held 3 min, 100 µL/min
Settings: column: Zorbax Extend-C18 2.1 x 50 mm; eluents: water / acetonitrile, 0.1% formic acid
Summary of the method: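 In both positive and negative ionization mode, a quadrupole time-of-flight mass spectrometer coupled to HPLC analyzed pure standards run in mixtures of ~100 molecules. The Zorbax Extend-C18 column (2.1 × 50 mm, 1.8 μm) was operated at 100 μL/min with water and acetonitrile, each containing 0.1% formic acid. The dead volume was 40 μL and the dwell volume 900 μL. Retention time came from adduct peaks that were computationally picked and individually inspected by hand.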
Compound `Cc1cccc(-c2cc(C(N)=O)c3ccccc3n2)c1` has an RP-LC retention time of 816 s. With `Brc1ccccc1Cc1nc(-c2ccc3nncn3c2)no1` the RP-LC retention time was 724 s. In the case of `O=C(Nc1ccc(F)c(Cl)c1)N1CCC(n2cnc3ccc(F)cc3c2=O)CC1`, the RP-LC retention time is reported as 860 s. For `COc1ccc(C(=O)Nc2ccc3c(c2)Sc2ncccc2C(=O)N3C(C)C)c(OC)c1`, the RP-LC retention time was 951 s. Work on `O=C(Cn1cccc(S(=O)(=O)N2CCOCC2)c1=O)NCc1ccc(Cl)cc1` yielded an RP-LC retention time of 666 s. Compound `Cc1c(N2C(=O)C3C4C=CC(C4)C3C2=O)c(=O)n(-c2ccccc2)n1C` (stereo not given) has an RP-LC retention time of 615 s. With `O=C1CC(c2noc(-c3ccccc3)n2)CN1Cc1ccccc1` (stereo not given) the RP-LC retention time was 642 s. `CC(C)Cn1cc(S(=O)(=O)NCc2ccccc2Cl)c2cccnc21` gave an RP-LC retention time of 1020 s. In the case of `Cc1ccccc1CNC(=O)c1c(C)oc2c1C1=NCCN1C=N2`, the RP-LC retention time is reported as 621 s. For `CCOc1ccc(-c2noc(Cc3nnc(-c4ccc(C)c(C)c4)o3)n2)cc1`, the RP-LC retention time was 1200 s. With `O=C(NCc1cc(F)cc(F)c1)c1c(O)c2cccnc2n(-c2ccc(F)cc2)c1=O` the RP-LC retention time was 1180 s. `O=C(CCn1cnc2cc(-c3noc(-c4cccc(Cl)c4)n3)ccc21)N1CCOCC1` showed an RP-LC retention time of 754 s. In the case of `CCc1nc2cc(N3CCC(C(=O)NCc4ccccn4)CC3)cnc2nc1CC`, the RP-LC retention time is reported as 601 s. In the case of `Cc1nnc(CNC(=O)C(C)n2nnc3ccccc3c2=O)o1` (stereo not given), the RP-LC retention time is reported as 577 s. Compound `COc1ccc(NS(=O)(=O)c2cc3c(s2)CCN(C(=O)C2CCC2)C3)cc1Cl` has an RP-LC retention time of 893 s. `Cc1sc(-c2nnc(C3CC3)o2)cc1NC(=O)c1n[nH]c2c1CCCC2` showed an RP-LC retention time of 916 s. For `Cc1cnc(CCNS(=O)(=O)c2ccc(C#N)cc2)n1C1CC1`, the RP-LC retention time was 960 s. `Cn1c(=O)n([C@H]2CCN(C(=O)C3(c4ccccc4)CC3)C2)c2ncccc21` gave an RP-LC retention time of 733 s. With `CN(CCc1noc(COc2ccccc2)n1)C(=O)Nc1ccccc1C(F)(F)F` the RP-LC retention time was 953 s. `Cc1c(S(=O)(=O)N2c3ccccc3CC2C)cc(C(=O)N2CCC(C)CC2)n1C` (stereo not given) showed an RP-LC retention time of 723 s. Work on `CCC(C)(C(=O)NC1CCCCC1)N(Cc1ccco1)C(=O)c1ccc2c(c1)OCO2` (stereo not given) yielded an RP-LC retention time of 564 s. `CCCNC(=O)C1CCN(c2ccc(SCC(=O)Nc3cc(C)ccc3C)nn2)CC1` gave an RP-LC retention time of 656 s. `Cc1ccc(C)c(N2CCN(c3ccnc(SCC(=O)Nc4cccc(Cl)c4F)n3)CC2)c1` gave an RP-LC retention time of 1230 s. Compound `CC(C)(C)C1CCc2[nH]nc(C(N)=O)c2C1` (stereo not given) has an RP-LC retention time of 745 s. With `COc1ccccc1NC(=O)Cn1c(=O)n(-c2ccccc2)c(=O)c2c1cc(C)n2C` the RP-LC retention time was 971 s. In the case of `CCn1c(=O)c(NCCc2ccc(OC)c(OC)c2)nc2ccncc21`, the RP-LC retention time is reported as 618 s. Work on `CCOc1ccccc1CNC(=O)CCc1c(-c2ccc(Br)cc2)nc2ccccn12` yielded an RP-LC retention time of 744 s. For `COc1cccc(CNS(=O)(=O)c2ccc3c(c2)CCCC(=O)N3)c1`, the RP-LC retention time was 714 s. Work on `Cc1sc(NC(=O)c2ccc(Br)cc2)nc1-c1ccc2c(c1)NC(=O)CO2` yielded an RP-LC retention time of 972 s. Work on `CC(=O)N1CCc2ccccc2C1C(=O)N1CCN(c2ccccn2)CC1` (stereo not given) yielded an RP-LC retention time of 587 s. `O=C(NC1CCCCC1)N1CCC(c2noc(-c3ccccc3)n2)C1` (stereo not given) gave an RP-LC retention time of 939 s. For `Cc1cccc2c3c(ccc12)C1=C(C(=O)C3=O)[C@@H](C)CO1`, the RP-LC retention time was 1200 s. In the case of `CCC1CN2C=Nc3oc(C)c(C(=O)Nc4cccc(Cl)c4C)c3C2=N1` (stereo not given), the RP-LC retention time is reported as 687 s. Compound `COc1cc2c(c(O)c1OC)-c1c(cc(OC)c(OC)c1OC)CC(C)C(C)C2` (stereo not given) has an RP-LC retention time of 1080 s. `CCCn1cnc2cc(-c3noc(CNC(=O)c4ccc(C)cc4)n3)ccc21` gave an RP-LC retention time of 687 s. `Cc1cc(C)cc(NC(=O)N2CC(CN(C)C)C3(CCCCC3)C2)c1` (stereo not given) showed an RP-LC retention time of 695 s. `CCCN1CCc2cc(O)cc3c2[C@H]1Cc1ccc(O)c(O)c1-3` showed an RP-LC retention time of 646 s. `O=C(CCC(=O)N1CCOc2ccccc21)Nc1c(F)c(F)c(F)c(F)c1F` gave an RP-LC retention time of 912 s. For `CCN(CC)C(=O)c1ccc(-c2nc3cc(NS(=O)(=O)c4ccc(C)c(C)c4)ccc3n2C)cc1`, the RP-LC retention time was 726 s. `Nc1cc(C2CCN(C(=O)COc3ccccc3)CC2)no1` showed an RP-LC retention time of 662 s. With `O=C(c1cc(C2CC2)[nH]n1)N1CCN(c2ccc(Cl)cc2)CC1` the RP-LC retention time was 837 s. Work on `CC(C)CN(CC(C)C)C(=O)CCCN1C(=O)c2ccccc2C1=O` yielded an RP-LC retention time of 947 s. In the case of `COCCCn1c(=O)c2ccccc2n(Cc2nc(-c3ccccc3)no2)c1=O`, the RP-LC retention time is reported as 994 s. Compound `Cc1cc(F)ccc1NS(=O)(=O)c1ccc2c(c1)C(=O)N(C)c1ncccc1O2` has an RP-LC retention time of 924 s. `Cc1ccc(-c2nc(Cn3nnc(C(=O)NCc4ccc(C)o4)c3C)c(C)o2)cc1` showed an RP-LC retention time of 1010 s. Compound `O=C1NCCN2CC3(CCN(S(=O)(=O)c4cccc5cccnc45)CC3)CC12` (stereo not given) has an RP-LC retention time of 581 s. Work on `CCNC(=O)N1CCCC(Cn2c(C3CC3)nc3cccnc32)C1` (stereo not given) yielded an RP-LC retention time of 585 s. `CN(C)c1ccc(CNC(=O)C2CCN(c3cncnc3N3CCCC3)CC2)cc1` showed an RP-LC retention time of 555 s. For `Cc1cc(C)n2c(C)nnc2c1`, the RP-LC retention time was 570 s. With `Cc1ccc(C(=O)NC2CCN(c3ccc(C)cc3)C2=O)cc1` (stereo not given) the RP-LC retention time was 825 s. In the case of `O=C(NCc1ccc(N2CCOCC2)cc1)C1CCCN(c2nccnc2Sc2ccccc2)C1` (stereo not given), the RP-LC retention time is reported as 933 s. For `O=C(NCc1ccc(Cl)cc1)c1ccc2c(c1)nc1n2CCN(Cc2ccccn2)C1=O`, the RP-LC retention time was 675 s. For `Cc1ccc(S(=O)(=O)N(C)c2ccc(C(=O)N3C(C)CCCC3C)cc2)cc1` (stereo not given), the RP-LC retention time was 961 s. `CCn1cc(C2=CCN(C(=O)Nc3cc(Cl)ccc3C)CC2)c2cccnc21` showed an RP-LC retention time of 999 s. In the case of `O=C1CCCc2cc(S(=O)(=O)NCCCN3CCN(Cc4ccccc4)CC3)ccc2N1`, the RP-LC retention time is reported as 581 s. In the case of `CCN(CC)CCCNC(=O)C1CCCN(c2ncc(-c3ccc(F)cc3)cn2)C1` (stereo not given), the RP-LC retention time is reported as 668 s. In the case of `Cc1nc(S(=O)(=O)N2CCc3c(c(-c4nnc(-c5ccc(F)cc5)o4)nn3C)C2)cn1C`, the RP-LC retention time is reported as 703 s. Compound `CC1(C(=O)NCc2ccccc2)CN(S(=O)(=O)c2ccccc2)CC(=O)N1c1ccc(F)cc1` (stereo not given) has an RP-LC retention time of 914 s. Compound `CCOc1cc(C(=O)Nc2c(-c3ccc(OC)cc3)nc3cc(C)ccn23)cc(OCC)c1OCC` has an RP-LC retention time of 803 s. `Cc1nn(-c2cc(N3CCCCC3)ncn2)c(C)c1CCC(=O)NCc1ccccn1` gave an RP-LC retention time of 646 s. Work on `CC(C)c1ccc(NC(=O)C2CCCN(c3ccc(=O)n(-c4cccc(Cl)c4)n3)C2)cc1` (stereo not given) yielded an RP-LC retention time of 1120 s. For `CCN1C[C@]2(C)CC[C@H](OC)[C@]34C2[C@H](OC(C)=O)[C@@]2(OCO[C@@]25CC(OC)[C@H]2C[C@]3(O)C5[C@H]2OC)C14` (stereo not given in full), the RP-LC retention time was 662 s. For `O=C1CC(c2nc(-c3ccc(Cl)cc3)no2)CN1c1ccc2c(c1)OCCO2` (stereo not given), the RP-LC retention time was 1040 s. With `Cc1ccc(-c2nc3cnccn3c2Nc2cccc(C(=O)O)c2)cc1` the RP-LC retention time was 711 s. In the case of `O=C(NC1CCCCC1)N1CCCC1c1nc(-c2cccc(F)c2)no1` (stereo not given), the RP-LC retention time is reported as 984 s.
